Results on two compounds are retold here after ChEMBL document CHEMBL3046000, “Design and synthesis of 1-(benzothiazol-5-yl)-1H-1,2,4-triazol-5-ones as protoporphyrinogen oxidase inhibitors” (Bioorg Med Chem, 2013).

SMILES strings stand for the structures.

Broadly, the Ki is the equilibrium dissociation constant of an inhibitor or competing ligand from its target.

Experiment [1] deals with Brassica juncea. The experiment is described as follows: Post-emergence herbicidal activity against Brassica juncea seedlings assessed as plant growth inhibition at 37.5 g ai/ha measured 15 days after compound treatment under greenhouse conditions. The format is functional. The conditions noted are these: 360 h, read-out: GI.
Experiment [2] concerns Amaranthus retroflexus. Nature of the experiment: Post emergence herbicidal activity against Amaranthus retroflexus seedlings assessed as plant growth inhibition at 37.5 g ai/ha measured 15 days after compound treatment under greenhouse conditions. Conditions: 360 h, read-out: GI. The format is functional.
Experiment [3] has as its system Setaria faberi. Nature of the experiment: Post-emergence herbicidal activity against Setaria faberi (Giant Foxtail) seedlings assessed as plant growth inhibition at 37.5 g ai/ha measured 15 days after compound treatment under greenhouse conditions. Type of experiment: functional. Conditions: 360 h, read-out: GI.
In experiment [4] the test system is Chenopodium album. The experiment is described as follows: Post-emergence herbicidal activity against Chenopodium album seedlings assessed as plant growth inhibition at 37.5 g ai/ha measured 15 days after compound treatment under greenhouse conditions. The format is functional. Conditions: 360 h, read-out: GI.
Experiment [5] concerns Digitaria sanguinalis. Nature of the experiment: Post-emergence herbicidal activity against Digitaria sanguinalis (hairy crabgrass) seedlings assessed as plant growth inhibition at 37.5 g ai/ha measured 15 days after compound treatment under greenhouse conditions. The format is functional. Conditions: 360 h, read-out: GI.
In experiment [6] the test system is Amaranthus retroflexus. The experiment is described as follows: Post emergence herbicidal activity against Amaranthus retroflexus seedlings assessed as plant growth inhibition at 75 g ai/ha measured 15 days after compound treatment under greenhouse conditions. Type of experiment: functional. The conditions noted are these: 360 h, read-out: GI.
Experiment [7] has as its system Setaria faberi. The experiment is described as follows: Post-emergence herbicidal activity against Setaria faberi (Giant Foxtail) seedlings assessed as plant growth inhibition at 75 g ai/ha measured 15 days after compound treatment under greenhouse conditions. The format is functional. Conditions: 360 h, read-out: GI.
Experiment [8] deals with Digitaria sanguinalis. The experiment is described as follows: Post-emergence herbicidal activity against Digitaria sanguinalis (hairy crabgrass) seedlings assessed as plant growth inhibition at 150 g ai/ha measured 15 days after compound treatment under greenhouse conditions. Type of experiment: functional. Conditions: 360 h, read-out: GI.
Experiment [9] concerns Chenopodium album. Nature of the experiment: Post-emergence herbicidal activity against Chenopodium album seedlings assessed as plant growth inhibition at 75 g ai/ha measured 15 days after compound treatment under greenhouse conditions. Type of experiment: functional. Conditions: 360 h, read-out: GI.
The subject of experiment [10] is Brassica juncea. Nature of the experiment: Post-emergence herbicidal activity against Brassica juncea seedlings assessed as plant growth inhibition at 75 g ai/ha measured 15 days after compound treatment under greenhouse conditions. The format is functional. Conditions: 360 h, read-out: GI.
The target of experiment [11] is T1, Protoporphyrinogen oxidase, chloroplastic (Nicotiana tabacum, UniProt O24163).
T1 sequence (O24163 whole entry): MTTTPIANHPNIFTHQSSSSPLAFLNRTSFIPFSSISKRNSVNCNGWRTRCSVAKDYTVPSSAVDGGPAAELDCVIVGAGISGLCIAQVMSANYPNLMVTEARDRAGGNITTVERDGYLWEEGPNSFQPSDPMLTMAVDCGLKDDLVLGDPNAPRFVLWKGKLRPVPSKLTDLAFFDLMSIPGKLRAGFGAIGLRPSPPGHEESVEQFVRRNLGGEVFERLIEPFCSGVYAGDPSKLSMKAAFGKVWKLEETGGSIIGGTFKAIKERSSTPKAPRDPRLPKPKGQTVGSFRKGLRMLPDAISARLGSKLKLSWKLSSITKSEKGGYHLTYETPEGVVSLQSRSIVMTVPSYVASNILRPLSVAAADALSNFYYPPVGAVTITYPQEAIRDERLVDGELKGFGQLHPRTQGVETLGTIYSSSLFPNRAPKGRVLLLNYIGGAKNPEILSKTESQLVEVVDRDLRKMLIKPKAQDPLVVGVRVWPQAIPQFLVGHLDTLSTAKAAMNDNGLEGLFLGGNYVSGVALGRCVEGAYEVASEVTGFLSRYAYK
Nature of the experiment: Inhibition of Nicotiana tabacum (tobacco) recombinant PPO assessed as protoporphyrin IX formation at room temperature by fluorimetric assay.

Experiment [12] concerns Echinochloa crus-galli. The experiment is described as follows: Post emergence herbicidal activity against Echinochloa crus-galli (barnyard grass) seedlings assessed as plant growth inhibition at 75 g ai/ha measured 15 days after compound treatment under greenhouse conditions. Type of experiment: functional. The conditions noted are these: 360 h, read-out: GI.
The test system of experiment [13] is Amaranthus retroflexus. Nature of the experiment: Post emergence herbicidal activity against Amaranthus retroflexus seedlings assessed as plant growth inhibition at 150 g ai/ha measured 15 days after compound treatment under greenhouse conditions. Type of experiment: functional. The conditions noted are these: 360 h, read-out: GI.
Experiment [14] has as its system Echinochloa crus-galli. Nature of the experiment: Post emergence herbicidal activity against Echinochloa crus-galli (barnyard grass) seedlings assessed as plant growth inhibition at 150 g ai/ha measured 15 days after compound treatment under greenhouse conditions. The format is functional. The conditions noted are these: 360 h, read-out: GI.
The subject of experiment [15] is Echinochloa crus-galli. Nature of the experiment: Post emergence herbicidal activity against Echinochloa crus-galli (barnyard grass) seedlings assessed as plant growth inhibition at 37.5 g ai/ha measured 15 days after compound treatment under greenhouse conditions. Type of experiment: functional. Conditions: 360 h, read-out: GI.
Experiment [16] deals with Setaria faberi. The experiment is described as follows: Post-emergence herbicidal activity against Setaria faberi (Giant Foxtail) seedlings assessed as plant growth inhibition at 150 g ai/ha measured 15 days after compound treatment under greenhouse conditions. Conditions: 360 h, read-out: GI. Type of experiment: functional.
Experiment [17] concerns Chenopodium album. The experiment is described as follows: Post-emergence herbicidal activity against Chenopodium album seedlings assessed as plant growth inhibition at 150 g ai/ha measured 15 days after compound treatment under greenhouse conditions. The format is functional. Conditions: 360 h, read-out: GI.
Experiment [18] concerns Digitaria sanguinalis. Nature of the experiment: Post-emergence herbicidal activity against Digitaria sanguinalis (hairy crabgrass) seedlings assessed as plant growth inhibition at 75 g ai/ha measured 15 days after compound treatment under greenhouse conditions. Type of experiment: functional. The conditions noted are these: 360 h, read-out: GI.
The test system of experiment [19] is Brassica juncea. The experiment is described as follows: Post-emergence herbicidal activity against Brassica juncea seedlings assessed as plant growth inhibition at 150 g ai/ha measured 15 days after compound treatment under greenhouse conditions. Type of experiment: functional. Conditions: 360 h, read-out: GI.

For `Cc1nn(-c2cc3nc(SC(C)C(=O)O)sc3cc2Cl)c(=O)n1C(F)F` (stereo not drawn), the inhibition of growth at 37.5 g/ha was below 50% with Brassica juncea [1]; below 50% in the experiment with Amaranthus retroflexus [2]; below 50% in the experiment with Setaria faberi [3]; 60% in the experiment on Chenopodium album [4]; below 50% in the experiment with Digitaria sanguinalis [5]; below 50% in the experiment with Echinochloa crus-galli [15]. For the same compound, the inhibition of growth at 75 g/ha was 60% in the experiment with Amaranthus retroflexus [6]; below 50% in the experiment with Setaria faberi [7]; at least 90% in the experiment with Chenopodium album [9]; 80% in the experiment on Brassica juncea [10]; below 50% in the experiment with Echinochloa crus-galli [12]; below 50% in the experiment on Digitaria sanguinalis [18]. In addition, the inhibition of growth at 150 g/ha with Digitaria sanguinalis [8], in the experiment on Amaranthus retroflexus [13], with Echinochloa crus-galli [14], in the experiment with Setaria faberi [16], with Chenopodium album [17] and with Brassica juncea [19] was at least 90% throughout. In addition, the Ki in experiment [11] stood at 6.73 µM.
Regarding `COC(=O)Sc1nc2cc(-n3nc(C)n(C(F)F)c3=O)c(F)cc2s1`, the inhibition of growth at 37.5 g/ha in the experiment with Brassica juncea [1] is below 50%; in the experiment on Amaranthus retroflexus [2], below 50%; with Setaria faberi [3], below 50%; with Chenopodium album [4], 50%; in the experiment on Digitaria sanguinalis [5], 60%; in the experiment with Echinochloa crus-galli [15] it was 50%. For the same compound, the inhibition of growth at 75 g/ha in the experiment on Amaranthus retroflexus [6] is 50%; in the experiment on Setaria faberi [7], below 50%; with Chenopodium album [9], at least 90%; in the experiment on Brassica juncea [10] it was 50%; in the experiment on Echinochloa crus-galli [12], 50%; with Digitaria sanguinalis [18], 60%. The inhibition of growth at 150 g/ha in the experiment with Digitaria sanguinalis [8] was 60%; in the experiment with Amaranthus retroflexus [13], at least 90%; with Echinochloa crus-galli [14], 60%; in the experiment with Setaria faberi [16], below 50%; in the experiment on Chenopodium album [17], at least 90%; in the experiment on Brassica juncea [19], at least 90%. Moreover, the inhibition constant Ki in experiment [11] turned out to be 0.29 µM.
